Like-named read-outs stand apart in the source and are kept apart here.
Tests used:
[1] = Brain penetration in rats; type: in vivo; settings: male, rat, 10 mg/kg oral gavage, 8 hour post-dosing
Method: This testing was performed to test the ability of compounds to penetrate the blood-brain-barrier in rats. The testing was performed according to the following procedure: 1) For each compound, take 3 male rats with body weight of 217-228 g, formulate compound using 0.5% HPMC/water suspension at concentration of 1 mg/ml; 2) After fasting overnight, administer compound at 10 mg/kg by oral gavage; 3) Take plasma samples at 1, 2, 4, 8 hours post-dosing; 4) At 8 hour post-dosing, also take brain tissues and cerebrospinal fluid (CSF); 5) Analyze compound concentration in plasma, brain tissue, and CSF using LC-MS/MS method.

[2] = Brain penetration in mice; type: in vivo, C57BL/6 mice; settings: male, mouse, 30 mg/kg oral gavage, 4-hour post-dosing
Method: This testing was performed to test the ability of compounds to penetrate the blood-brain-barrier in mice. The testing was performed according to the following procedure: 1) for each compound, take 3 male C57BL/6 mice with body weight of 17-18 g, formulate compound using 0.5% HPMC/water suspension at concentration of 3 mg/ml; 2) After fasting overnight, administer compound at 30 mg/kg by oral gavage; 3) Take plasma samples at 1, 2, 4 hours post-dosing; 4) At 4-hour post-dosing, also take brain tissues and cerebrospinal fluid (CSF) fluid; 5) Analyze compound concentration in plasma, brain tissue, and CSF fluid using LC-MS/MS method.

JAK3 = biological target: T1, JAK3 (Homo sapiens, UniProt P52333); test: JAK3 biochemical test (33P-ATP filter binding, Reaction Biology); settings: read-out: Inhibition of JAK3 (IC50)
T1 construct: purchased Reaction Biology Corp, Malvern, PA (contract testing)
T1 sequence (P52333 1-1124): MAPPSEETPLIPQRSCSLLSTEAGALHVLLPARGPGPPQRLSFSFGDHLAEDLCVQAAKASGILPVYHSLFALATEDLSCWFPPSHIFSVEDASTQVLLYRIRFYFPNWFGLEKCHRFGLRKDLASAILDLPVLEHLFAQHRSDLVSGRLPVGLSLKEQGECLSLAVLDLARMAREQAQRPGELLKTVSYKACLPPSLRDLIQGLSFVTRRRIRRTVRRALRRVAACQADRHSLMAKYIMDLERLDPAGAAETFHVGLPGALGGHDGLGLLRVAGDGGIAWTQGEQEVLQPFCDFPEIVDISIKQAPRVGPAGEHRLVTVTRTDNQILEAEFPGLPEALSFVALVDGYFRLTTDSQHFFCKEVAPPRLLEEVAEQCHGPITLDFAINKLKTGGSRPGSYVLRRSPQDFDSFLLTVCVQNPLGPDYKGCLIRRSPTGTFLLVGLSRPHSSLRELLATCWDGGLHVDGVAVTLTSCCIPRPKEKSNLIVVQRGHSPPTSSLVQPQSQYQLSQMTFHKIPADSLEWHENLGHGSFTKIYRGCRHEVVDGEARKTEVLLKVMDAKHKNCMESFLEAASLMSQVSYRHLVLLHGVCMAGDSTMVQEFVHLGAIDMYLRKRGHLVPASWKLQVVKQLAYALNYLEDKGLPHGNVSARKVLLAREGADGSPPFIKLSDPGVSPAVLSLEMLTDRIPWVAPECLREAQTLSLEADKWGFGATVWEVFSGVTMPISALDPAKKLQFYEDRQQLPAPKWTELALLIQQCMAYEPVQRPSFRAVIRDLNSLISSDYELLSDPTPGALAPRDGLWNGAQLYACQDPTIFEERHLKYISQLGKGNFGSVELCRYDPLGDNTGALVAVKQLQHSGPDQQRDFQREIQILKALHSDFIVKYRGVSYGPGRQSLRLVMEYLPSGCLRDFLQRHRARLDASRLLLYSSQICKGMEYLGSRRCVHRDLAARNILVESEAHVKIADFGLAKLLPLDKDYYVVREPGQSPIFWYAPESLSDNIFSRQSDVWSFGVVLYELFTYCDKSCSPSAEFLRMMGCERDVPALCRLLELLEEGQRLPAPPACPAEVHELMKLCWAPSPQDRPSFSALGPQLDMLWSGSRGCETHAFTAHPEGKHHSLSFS
Method: (§1) The tests were conducted by Reaction Biology Corp, Malvern, PA (Anastassiadis et al. Nat Biotechnol. 2011; 29(11):1039-45). The step is briefly described as follows, using the basic reaction buffer: 20 mM Hepes (pH 7.5), 10 mM MgCl2, 1 mM EGTA, 0.02% Brij35, 0.02 mg/ml BSA, 0.1 mM Na3VO4, 2 mM DTT and 1% DMSO. The required cofactor was added to each kinase reaction respectively. Each reaction was performed according to the following reaction steps: 1) Preparing the designated substrate in the newly prepared basic reaction buffer; 2) Transferring the required cofactor to the above matrix solution; 3) Transferring the designated kinase to the substrate solution and mixing well slightly; 4) Transferring a compound of Formula (I) in DMSO to the kinase reaction mixture with Acoustic technique (Echo550; nanoliter range), culturing for 20 minutes at room temperature; 5) Introducing ^33P-ATP (specific activity: 10 μCi/μl) to the reaction mixture to trigger a reaction; 6) Culturing at room temperature and conducting a kinase reaction for 2 hours; 7) Plotting the reaction on P81 ion exchange paper; and 8) Testing the kinase activity with a filter binding assay. The results shown in Table 1 indicate that compounds of Formulae (I)-(III) are potent and selective TYK2/JAK1 inhibitors.

JAK2 = biological target: T2, JAK2 (Homo sapiens, UniProt O60674); test: JAK2 biochemical test (33P-ATP filter binding, Reaction Biology); settings: read-out: Inhibition of JAK2 (IC50)
T2 construct: purchased Reaction Biology Corp, Malvern, PA (contract testing)
T2 sequence (O60674 whole entry): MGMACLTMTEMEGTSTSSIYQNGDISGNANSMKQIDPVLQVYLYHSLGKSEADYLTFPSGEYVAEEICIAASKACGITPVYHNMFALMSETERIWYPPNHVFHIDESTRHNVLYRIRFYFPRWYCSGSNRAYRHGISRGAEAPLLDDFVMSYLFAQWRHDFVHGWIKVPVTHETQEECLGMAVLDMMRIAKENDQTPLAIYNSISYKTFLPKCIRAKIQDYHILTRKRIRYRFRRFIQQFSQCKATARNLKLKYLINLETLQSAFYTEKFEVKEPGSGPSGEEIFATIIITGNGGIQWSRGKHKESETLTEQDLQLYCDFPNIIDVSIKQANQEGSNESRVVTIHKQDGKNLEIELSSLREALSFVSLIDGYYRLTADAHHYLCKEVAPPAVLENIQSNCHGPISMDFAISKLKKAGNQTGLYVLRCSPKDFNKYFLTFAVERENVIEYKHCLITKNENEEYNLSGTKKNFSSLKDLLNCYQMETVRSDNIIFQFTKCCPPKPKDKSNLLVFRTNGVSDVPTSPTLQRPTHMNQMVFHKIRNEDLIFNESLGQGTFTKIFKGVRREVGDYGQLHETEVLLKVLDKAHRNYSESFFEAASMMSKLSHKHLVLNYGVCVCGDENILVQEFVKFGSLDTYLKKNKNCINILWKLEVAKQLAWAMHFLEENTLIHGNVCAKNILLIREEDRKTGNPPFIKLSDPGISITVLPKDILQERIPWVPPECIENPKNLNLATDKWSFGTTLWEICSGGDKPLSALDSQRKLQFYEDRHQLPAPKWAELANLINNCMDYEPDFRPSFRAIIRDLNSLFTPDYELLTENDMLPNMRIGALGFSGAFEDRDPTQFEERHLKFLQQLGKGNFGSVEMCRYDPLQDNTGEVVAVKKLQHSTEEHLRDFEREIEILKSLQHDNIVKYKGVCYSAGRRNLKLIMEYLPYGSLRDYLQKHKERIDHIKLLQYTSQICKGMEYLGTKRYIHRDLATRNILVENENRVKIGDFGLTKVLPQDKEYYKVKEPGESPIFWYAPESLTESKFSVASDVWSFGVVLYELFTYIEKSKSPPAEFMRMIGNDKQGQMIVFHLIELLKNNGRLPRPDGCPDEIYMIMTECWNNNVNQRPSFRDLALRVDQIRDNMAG
Method: as §1

JAK1 = biological target: T3, JAK1 (Homo sapiens, UniProt P23458); test: JAK1 cellular ELISA assay using PBMC cells (IL-6 stimulated STAT3 phosphorylation); type: cell-based; settings: IL-6 100 ng/ml, 25 min
T3 construct: purchased Reaction Biology Corp, Malvern, PA (contract testing)
T3 sequence (P23458 whole entry): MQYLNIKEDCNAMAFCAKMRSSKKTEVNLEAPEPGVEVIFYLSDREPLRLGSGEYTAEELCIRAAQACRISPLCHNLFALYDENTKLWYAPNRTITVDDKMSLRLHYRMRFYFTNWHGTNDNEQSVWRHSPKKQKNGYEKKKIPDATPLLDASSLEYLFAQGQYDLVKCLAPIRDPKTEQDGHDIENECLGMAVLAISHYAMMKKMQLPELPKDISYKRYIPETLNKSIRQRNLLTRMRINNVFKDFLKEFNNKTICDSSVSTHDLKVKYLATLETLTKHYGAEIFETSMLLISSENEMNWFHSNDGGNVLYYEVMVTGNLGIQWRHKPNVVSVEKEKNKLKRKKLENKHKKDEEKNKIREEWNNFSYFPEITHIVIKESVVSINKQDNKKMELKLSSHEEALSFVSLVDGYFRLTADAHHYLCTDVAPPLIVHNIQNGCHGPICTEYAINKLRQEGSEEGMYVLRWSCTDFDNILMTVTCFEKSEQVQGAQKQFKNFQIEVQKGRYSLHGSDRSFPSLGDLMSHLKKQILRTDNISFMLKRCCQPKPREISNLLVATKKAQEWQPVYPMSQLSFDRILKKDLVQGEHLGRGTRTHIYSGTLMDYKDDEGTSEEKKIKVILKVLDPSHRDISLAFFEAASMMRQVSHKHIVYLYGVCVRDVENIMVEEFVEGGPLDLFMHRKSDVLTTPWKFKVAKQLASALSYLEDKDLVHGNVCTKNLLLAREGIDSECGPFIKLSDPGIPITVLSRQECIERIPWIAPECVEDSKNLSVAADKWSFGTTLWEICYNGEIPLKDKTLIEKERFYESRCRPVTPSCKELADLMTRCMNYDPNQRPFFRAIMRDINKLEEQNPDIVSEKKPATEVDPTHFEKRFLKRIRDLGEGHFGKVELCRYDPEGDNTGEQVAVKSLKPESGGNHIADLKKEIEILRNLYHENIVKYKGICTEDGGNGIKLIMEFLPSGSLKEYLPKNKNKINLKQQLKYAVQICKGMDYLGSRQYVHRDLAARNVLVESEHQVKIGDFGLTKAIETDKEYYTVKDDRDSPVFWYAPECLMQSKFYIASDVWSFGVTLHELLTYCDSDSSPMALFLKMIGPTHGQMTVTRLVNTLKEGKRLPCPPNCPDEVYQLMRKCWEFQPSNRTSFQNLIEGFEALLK
Method: This testing was performed to test cellular JAK1 activity using the IL-6 stimulated STAT3 phosphorylation assay in PBMC cells. The testing was performed according to the following procedure: 1) Plate PBMC cells to 96-well plate at density of ˜300,000 cell/well; 2) Add different concentrations of test article to wells, maintain in incubator at 37° C. and 5% CO2 for 1 hour; 3) Add IL-6 (final concentration: 100 ng/ml) to stimulate for 25 min in the above incubator; 4) After stimulation, transfer the suspension to 1.5 mL tube, centrifuge at 200 g for 5 min, collect cells, add 100 μL 1× lysate, lyse on ice for 1 hour; 5) Centrifuge at 4° C. and 12000 rpm for 10 min, take the supernatant and analyze according to instructions of the ELISA kit. In this assay, compounds of Formulae (II) and (III) had IC50<300 nM.

Cc1nc2cnc3ccoc3c2n1[C@H]1CC[C@H](CC#N)OC1 [Formula (II)]
Kp at 8 h ([1]; CSF/plasma, read-out: CSF (ng/ml)/ Plasma (ng/ml)): > 0.15 | Kp at 8 h ([1]; brain/plasma, read-out: Brain (ng/ml)/ Plasma (ng/ml)): > 0.4 | Kp at 4 h ([2]; C57BL/6, CSF/plasma, read-out: CSF (ng/ml)/ Plasma (ng/ml)): > 0.15 | Kp at 4 h ([2]; C57BL/6, brain/plasma, read-out: Brain (ng/ml)/ Plasma (ng/ml)): > 0.3 | IC50 (JAK3): > 100 nM | IC50 (JAK2): > 100 nM | IC50 (JAK1): < 300 nM
